According to patent US6482603B1, “Method of detecting drug-receptor and protein-protein interactions” (Yale University, priority 1998, dated 2002):

Experiments:
[1] = tested on: yeast expressing the Sec-1 G protein gamma subunit fusion and syntaxin; experiment: growth inhibition assay (halo assay); format: cell-based, Saccharomyces cerevisiae; conditions: filter disks containing 5 or 15 μg of α-factor; strain MHY6; documented after 2 days at 30° C.
Description: (§1) Standard methods for the growth, maintenance, and transformation of yeast and bacteria, and for the manipulation of DNA, were used throughout (Ausubel et al. 1987, Current Protocols in Molecular Biology. Wiley-Interscience, New York). The Escherichia coli strain DH5α was used for the maintenance of plasmids. Yeast cells were grown in synthetic medium supplemented with amino acids, adenine and 2% glucose (SCD) or 2% galactose plus 0.2% sucrose (SCG); tryptophan and/or uracil were omitted to maintain selection for plasmids. The Saccharomyces cerevisiae strain used in this study was MHY6 (from Jeremy Thomer) (MATa ura3-52 lys2-801^am ade2-101^oc trp1-Δ63 his3-Δ200 leu2-Δ1 ste18Δ::LEU2) (derived from Sikorski et al. (1989) Genetics 122(1):19-27).
(§2) To evaluate to the interactions of the Sec-1 G protein gamma subunit fusion and syntaxin, a growth inhibition assay (halo assay) was carried out by diluting 50 μL from an overnight culture grown at 30° C. in selective media with 2 mL sterile water, followed by the addition of an equal volume of 1% (w/v) dissolved agar (55° C.) and poured onto a culture dish of SCD-Trp-Ura or SCG-Trp-Ura medium. Sterile filter discs were spotted with 5 μg or 15 μg of synthetic α-factor pheromone and placed onto the nascent lawn to induce growth arrest. The resulting zone of growth-arrested cells was documented after 2 days at 30° C. […]

[2] = tested on: control cells which express the Sec-1 G protein gamma fusion alone and cells which express syntaxin alone; experiment: growth inhibition assay (halo assay), control cells; format: cell-based, Saccharomyces cerevisiae; conditions: upon pheromone addition, filter disks with 5 or 15 μg, 2 days at 30° C.
Description: as §1, §2

## α-factor
[1]
  α-factor induced growth arrest (zone of inhibition around filter paper disks): no zone of inhibition
[2]
  pheromone induced growth arrest: growth arrest
